Experimental data taken from patent US7973056B2, “Triazole derivative or salt thereof” (Fujifilm Finechemicals Co., Ltd, priority 2008, dated 2011).

Assays:
[1] = test system: Candida albicans TIMM 1623; test: Antifungal activity test (in vivo), mouse systemic infection model; design: survival rate: unit not given here; settings: for T/C (%): survival time of administration group / control group x100
Protocol: With respect to compounds I-1, I-3 and I-6 obtained in Examples 1, 3 and 6 respectively, therapeutic effects at the time of subcutaneous administration of compounds I-1, I-3 and I-6 on a mouse systemic infection model by Candida albicans TIMM 1623 were tested.
The test was carried out using 5 animals for each of the drug administration groups and Negative control group (sterile physiological saline administration group).
Each of compounds I-1, I-3 and I-6 was dissolved in and diluted with dimethyl sulfoxide (DMSO; Wako Pure Chemical Industries, Ltd.) and then prepared into a predetermined concentration by diluting with sterile physiological saline.
As the control experiment, Fluconazole (FLCZ, Flanos intravenous drip solution 100 mg; TOYAMA CHEMICAL CO, LTD.) diluted to a predetermined concentration with sterile physiological saline was used.
On the next day of the receipt of animals, body weights of mice were measured and CP (crude protein) was intraperitoneally administered at a dose of 200 mg/kg based on the individual body weight, and then they were reared for 3 days.
Cells of C. albicans TIMM 1623 cultured overnight at 35° C. on SDA (Sabouraud dextrose agar; Eiken Chemical Co., Ltd.) plate medium were suspended in sterile physiological saline and used as the Stock solution, and a portion thereof was diluted with 10% formalin (Wako Pure Chemical Industries, Ltd.). The number of cells in the diluted liquid was counted under a biological microscope using a hemocytometer, and then an inoculum was prepared by diluting the stock solution with sterile physiological saline (about 1.5×10^5 cells/ml). By inoculating 0.2 ml of this cell suspension through caudal vein, infection was induced. In this connection, the number of viable cells in the inoculum was verified by spreading the cell suspension optionally diluted with sterile physiological saline on an SDA plate medium and then culturing at 35° C. Each of the substances to be tested, control substance or sterile physiological saline was subcutaneously administered after 2 hours of the infection and for 3 days starting on the next day of infection once a day, a total of 4 times. After measuring individual body weight on the next day of infection, CP was again administered intraperitoneally at a dose of 100 mg/kg. The number of survived mice was observed and recorded for 14 days starting on the next day of infection.
The results were shown in Table 3 below and FIGS. 1A to 1D. In the table, the administration dose of the compounds of the present invention and the comparative compound represents a mg amount per 1 kg of a mouse weight (mg/kg).
Significant deference was tested, by 5% for both sides of the levels of significance, in accordance with the Kaplan-Meier method Logrank test (comparison of multiple groups), on the survival time distribution of each of the substances to be tested and control substance administration groups and sterile physiological saline administration group. SAS release 8.2 (SAS Institute Japan) was used in the Kaplan-Meier method Logrank test. (T/C(%)=[survival time of administration group (integrated value)/survival time of control group (integrated value)]×100)

[2] = test system: Candida albicans ATCC 10231; test: Antifungal activity test (in vitro), MIC; assay type: cell-based; settings: ATCC10231
Protocol: (§1) Minimum inhibitory concentration (MIC) of each of the compounds obtained in Examples 1 to 12 was measured for respective fungi at MOS Pharm Service, by the methods described in Antimicrobial Agents and Chemotherapy, vol. 3, pp. 40-48 (1973), Antimicrobial Agents and Chemotherapy, vol. 33, pp. 215-222 (1989) and Antimicrobial Agents and Chemotherapy, vol. 38, pp. 2362-2368 (1994). The measuring conditions are shown in the following. In this case, Voriconazol was used as a comparative compound. Candida albicans ATCC 10231 and ATCC 44858; Cultured at 37° C. for 20 hours using fluid Sabouraud medium, and this was used as a cell suspension. Each of the compounds of the invention was adjusted to a concentration of 1% by weight using dimethyl sulfoxide (DMSO) and a medium similar to the respective medium used in the above-mentioned fungal culture, having a final concentration of from 0.001 to 100 μg/ml, was prepared. Each of the inoculation cell suspensions prepared by the above-mentioned methods was inoculated onto this agar plate. […] In this connection, Voriconazol was used as the comparative compound C-1.

[3] = test system: Microsporum canis ATCC 36299; test: Antifungal activity test (in vitro), MIC; assay type: cell-based; settings: ATCC36299
Protocol: as §1, with “Microsporum canis” for “Candida albicans”, “36299;” for “10231 and ATCC 44858;”, “30°” for “37°”, “2 days” for “20 hours”

C[C@@H](N1CCC(c2ccccn2)CC1)[C@](O)(Cn1cncn1)c1ccc(F)cc1F [I-1, (2R,3R)-2-(2,4-difluorophenyl)-3-(4-pyridin-2-ylpiperidin-1-yl)-1-(1,2,4-triazol-1-yl)butan-2-ol]
20: survival rate ([1]; 0.1 mg/kg s.c., day 7) | survival rate ([1]; 0.1 mg/kg s.c., day 8) | survival rate ([1]; 0.1 mg/kg s.c., day 9) | survival rate ([1]; 0.1 mg/kg s.c., day 10) | survival rate ([1]; 0.1 mg/kg s.c., day 11) | survival rate ([1]; 1 mg/kg s.c., day 13) | survival rate ([1]; 1 mg/kg s.c., day 14) | survival rate ([1]; 10 mg/kg s.c., day 13) | survival rate ([1]; 10 mg/kg s.c., day 14)
0.3 µg/mL: MIC [2] | MIC [3]
0: survival rate ([1]; 0.1 mg/kg s.c., day 12)
60: survival rate ([1]; 0.1 mg/kg s.c., day 3) | survival rate ([1]; 0.1 mg/kg s.c., day 4) | survival rate ([1]; 0.1 mg/kg s.c., day 5) | survival rate ([1]; 0.1 mg/kg s.c., day 6) | survival rate ([1]; 1 mg/kg s.c., day 7) | survival rate ([1]; 1 mg/kg s.c., day 8) | survival rate ([1]; 1 mg/kg s.c., day 9) | survival rate ([1]; 10 mg/kg s.c., day 3) | survival rate ([1]; 10 mg/kg s.c., day 4) | survival rate ([1]; 10 mg/kg s.c., day 5) | survival rate ([1]; 10 mg/kg s.c., day 6)
40: survival rate ([1]; 1 mg/kg s.c., day 10) | survival rate ([1]; 1 mg/kg s.c., day 11) | survival rate ([1]; 1 mg/kg s.c., day 12) | survival rate ([1]; 10 mg/kg s.c., day 7) | survival rate ([1]; 10 mg/kg s.c., day 8) | survival rate ([1]; 10 mg/kg s.c., day 9) | survival rate ([1]; 10 mg/kg s.c., day 10) | survival rate ([1]; 10 mg/kg s.c., day 11) | survival rate ([1]; 10 mg/kg s.c., day 12)
161%: T/C (%) ([1]; 1 mg/kg s.c.)
100: survival rate ([1]; 0.1 mg/kg s.c., day 0) | survival rate ([1]; 0.1 mg/kg s.c., day 1) | survival rate ([1]; 0.1 mg/kg s.c., day 2) | survival rate ([1]; 1 mg/kg s.c., day 0) | survival rate ([1]; 1 mg/kg s.c., day 1) | survival rate ([1]; 1 mg/kg s.c., day 2) | survival rate ([1]; 1 mg/kg s.c., day 3) | survival rate ([1]; 1 mg/kg s.c., day 4) | survival rate ([1]; 10 mg/kg s.c., day 0) | survival rate ([1]; 10 mg/kg s.c., day 1) | survival rate ([1]; 10 mg/kg s.c., day 2)
103%: T/C (%) ([1]; 0.1 mg/kg s.c.)
80: survival rate ([1]; 1 mg/kg s.c., day 5) | survival rate ([1]; 1 mg/kg s.c., day 6)
132%: T/C (%) ([1]; 10 mg/kg s.c.)

C[C@@H](N1CC=C(c2ccc(Cl)cn2)CC1)[C@](O)(Cn1cncn1)c1ccc(F)cc1F [I-6, (2R,3R)-3-(5-chloro-3′,6′-dihydro-2,4′-bipyridin-1′(2′H)-yl)-2-(2,4-difluorophenyl)-1-(1,2,4-triazol-1-yl)butan-2-ol]
80: survival rate ([1]; 0.1 mg/kg s.c., day 7)
60: survival rate ([1]; 0.1 mg/kg s.c., day 8) | survival rate ([1]; 0.1 mg/kg s.c., day 9) | survival rate ([1]; 0.1 mg/kg s.c., day 10) | survival rate ([1]; 0.1 mg/kg s.c., day 11) | survival rate ([1]; 0.1 mg/kg s.c., day 12) | survival rate ([1]; 0.1 mg/kg s.c., day 13) | survival rate ([1]; 0.1 mg/kg s.c., day 14)
194%: T/C (%) ([1]; 0.1 mg/kg s.c.)
100: survival rate ([1]; 0.1 mg/kg s.c., day 0) | survival rate ([1]; 0.1 mg/kg s.c., day 1) | survival rate ([1]; 0.1 mg/kg s.c., day 2) | survival rate ([1]; 0.1 mg/kg s.c., day 3) | survival rate ([1]; 0.1 mg/kg s.c., day 4) | survival rate ([1]; 0.1 mg/kg s.c., day 5) | survival rate ([1]; 0.1 mg/kg s.c., day 6) | survival rate ([1]; 1 mg/kg s.c., day 0) | survival rate ([1]; 1 mg/kg s.c., day 1) | survival rate ([1]; 1 mg/kg s.c., day 2) | survival rate ([1]; 1 mg/kg s.c., day 3) | survival rate ([1]; 1 mg/kg s.c., day 4) | survival rate ([1]; 1 mg/kg s.c., day 5) | survival rate ([1]; 1 mg/kg s.c., day 6) | survival rate ([1]; 1 mg/kg s.c., day 7) | survival rate ([1]; 1 mg/kg s.c., day 8) | survival rate ([1]; 1 mg/kg s.c., day 9) | survival rate ([1]; 1 mg/kg s.c., day 10) | survival rate ([1]; 1 mg/kg s.c., day 11) | survival rate ([1]; 1 mg/kg s.c., day 12) | survival rate ([1]; 1 mg/kg s.c., day 13) | survival rate ([1]; 1 mg/kg s.c., day 14) | survival rate ([1]; 10 mg/kg s.c., day 0) | survival rate ([1]; 10 mg/kg s.c., day 1) | survival rate ([1]; 10 mg/kg s.c., day 2) | survival rate ([1]; 10 mg/kg s.c., day 3) | survival rate ([1]; 10 mg/kg s.c., day 4) | survival rate ([1]; 10 mg/kg s.c., day 5) | survival rate ([1]; 10 mg/kg s.c., day 6) | survival rate ([1]; 10 mg/kg s.c., day 7) | survival rate ([1]; 10 mg/kg s.c., day 8) | survival rate ([1]; 10 mg/kg s.c., day 9) | survival rate ([1]; 10 mg/kg s.c., day 10) | survival rate ([1]; 10 mg/kg s.c., day 11) | survival rate ([1]; 10 mg/kg s.c., day 12) | survival rate ([1]; 10 mg/kg s.c., day 13) | survival rate ([1]; 10 mg/kg s.c., day 14)
0.01 µg/mL: MIC [2]
242%: T/C (%) ([1]; 1 mg/kg s.c.) | T/C (%) ([1]; 10 mg/kg s.c.)
0.3 µg/mL: MIC [3]

C[C@@H](N1CC=C(c2ccccn2)CC1)[C@](O)(Cn1cncn1)c1ccc(F)cc1F [I-3, (2R,3R)-2-(2,4-difluorophenyl)-3-(3′,6′-dihydro-2,4′-bipyridin-1′(2′H)-yl)-1-(1,2,4-triazol-1-yl)butan-2-ol]
40: survival rate ([1]; 0.1 mg/kg s.c., day 7) | survival rate ([1]; 0.1 mg/kg s.c., day 8) | survival rate ([1]; 0.1 mg/kg s.c., day 9) | survival rate ([1]; 0.1 mg/kg s.c., day 10) | survival rate ([1]; 0.1 mg/kg s.c., day 11) | survival rate ([1]; 0.1 mg/kg s.c., day 12) | survival rate ([1]; 0.1 mg/kg s.c., day 13) | survival rate ([1]; 0.1 mg/kg s.c., day 14) | survival rate ([1]; 1 mg/kg s.c., day 6) | survival rate ([1]; 1 mg/kg s.c., day 7) | survival rate ([1]; 1 mg/kg s.c., day 8) | survival rate ([1]; 1 mg/kg s.c., day 9) | survival rate ([1]; 1 mg/kg s.c., day 10) | survival rate ([1]; 1 mg/kg s.c., day 11) | survival rate ([1]; 1 mg/kg s.c., day 12) | survival rate ([1]; 1 mg/kg s.c., day 13) | survival rate ([1]; 1 mg/kg s.c., day 14) | survival rate ([1]; 10 mg/kg s.c., day 7)
116%: T/C (%) ([1]; 10 mg/kg s.c.)
100: survival rate ([1]; 0.1 mg/kg s.c., day 0) | survival rate ([1]; 0.1 mg/kg s.c., day 1) | survival rate ([1]; 0.1 mg/kg s.c., day 2) | survival rate ([1]; 1 mg/kg s.c., day 0) | survival rate ([1]; 1 mg/kg s.c., day 1) | survival rate ([1]; 1 mg/kg s.c., day 2) | survival rate ([1]; 10 mg/kg s.c., day 0) | survival rate ([1]; 10 mg/kg s.c., day 1) | survival rate ([1]; 10 mg/kg s.c., day 2)
80: survival rate ([1]; 1 mg/kg s.c., day 3) | survival rate ([1]; 1 mg/kg s.c., day 4)
142%: T/C (%) ([1]; 1 mg/kg s.c.)
0.03 µg/mL: MIC [3]
60: survival rate ([1]; 0.1 mg/kg s.c., day 3) | survival rate ([1]; 0.1 mg/kg s.c., day 4) | survival rate ([1]; 0.1 mg/kg s.c., day 5) | survival rate ([1]; 0.1 mg/kg s.c., day 6) | survival rate ([1]; 1 mg/kg s.c., day 5) | survival rate ([1]; 10 mg/kg s.c., day 3) | survival rate ([1]; 10 mg/kg s.c., day 4) | survival rate ([1]; 10 mg/kg s.c., day 5) | survival rate ([1]; 10 mg/kg s.c., day 6)
0.3 µg/mL: MIC [2]
20: survival rate ([1]; 10 mg/kg s.c., day 8) | survival rate ([1]; 10 mg/kg s.c., day 9) | survival rate ([1]; 10 mg/kg s.c., day 10) | survival rate ([1]; 10 mg/kg s.c., day 11) | survival rate ([1]; 10 mg/kg s.c., day 12) | survival rate ([1]; 10 mg/kg s.c., day 13) | survival rate ([1]; 10 mg/kg s.c., day 14)
139%: T/C (%) ([1]; 0.1 mg/kg s.c.)
